Source: ChEMBL document CHEMBL1123301, “Structure-activity study of 6-substituted 2-pyranones as inactivators of alpha-chymotrypsin” (J Med Chem, 1986)
Values belong to the compound of their own block, whether it stands above or below them.

Key:
[1] = molecular target: Chymotrypsinogen A (Bos taurus) (UniProt P00766)
[2] = Binding affinity towards alpha-chymotrypsin from bovine pancreas; design: species or system Bos taurus
[3] = molecular target: Chymotrypsinogen A (Bos taurus) (UniProt P00766); remark: listed apart in the source
[4] = molecular target: Chymotrypsinogen A (Bos taurus) (UniProt P00766); remark: listed apart in the source
[5] = molecular target: Chymotrypsinogen A (Bos taurus) (UniProt P00766); experiment: Binding affinity towards alpha-chymotrypsin from bovine pancreas; The compound was too insoluble to obtain reliable data

K inact [1]: No inactivation
Ki [2]: 160 µM
SMILES: O=c1occcc1-c1ccccc1

K inact [1]: No inactivation
SMILES: O=c1ccc(-c2ccccc2)co1

K inact [3]: 0.00217 min⁻¹
SMILES: CCCCc1ccc(=O)oc1Cl

The remaining lines, values behind:

SMILES: O=c1ccc(-c2ccccc2)c(Cl)o1
K inact [1]: No inactivation

SMILES: O=c1oc(Br)ccc1Cc1ccc2ccccc2c1
kinact [4]: 0.0239 min⁻¹
Ki [5]: The compound was too insoluble to obtain reliable data

SMILES: CCc1ccc(=O)oc1Cl
K inact [3]: 0.00551 min⁻¹

SMILES: O=c1oc(Cl)ccc1-c1ccccc1
K inact [1]: No inactivation
